Measured values from patent US20070299072A1, “KV1.5 POTASSIUM CHANNEL INHIBITORS” (Wyeth, priority 2006, published 2007).

Experiments:
Format in all cases: cell-based
[1] = target: T1, Kv1.5 (Homo sapiens, UniProt P22460); assay: Kv1.5 Patch Clamp EP (whole cell patch clamp; single point at 1 μM and IC50)
T1 construct: expressed in transfected cells; host or cells: HEK or LTK- cells
Experimental: The external solution is standard Tyrodes solution. […] Inhibition was measured at the end of the 1 second pulses and expressed relative to controls. Initial Kv1.5 inhibition is estimated by single point determinations done at 1 μM.

[2] = target: T2, HERG (Homo sapiens, UniProt Q12809); assay: HERG Patch Clamp EP (whole cell patch clamp, tail currents; single point at 10 μM and IC50)
T2 construct: expressed in transfected cells; host or cells: HEK cells
T2 sequence (Q12809 whole entry): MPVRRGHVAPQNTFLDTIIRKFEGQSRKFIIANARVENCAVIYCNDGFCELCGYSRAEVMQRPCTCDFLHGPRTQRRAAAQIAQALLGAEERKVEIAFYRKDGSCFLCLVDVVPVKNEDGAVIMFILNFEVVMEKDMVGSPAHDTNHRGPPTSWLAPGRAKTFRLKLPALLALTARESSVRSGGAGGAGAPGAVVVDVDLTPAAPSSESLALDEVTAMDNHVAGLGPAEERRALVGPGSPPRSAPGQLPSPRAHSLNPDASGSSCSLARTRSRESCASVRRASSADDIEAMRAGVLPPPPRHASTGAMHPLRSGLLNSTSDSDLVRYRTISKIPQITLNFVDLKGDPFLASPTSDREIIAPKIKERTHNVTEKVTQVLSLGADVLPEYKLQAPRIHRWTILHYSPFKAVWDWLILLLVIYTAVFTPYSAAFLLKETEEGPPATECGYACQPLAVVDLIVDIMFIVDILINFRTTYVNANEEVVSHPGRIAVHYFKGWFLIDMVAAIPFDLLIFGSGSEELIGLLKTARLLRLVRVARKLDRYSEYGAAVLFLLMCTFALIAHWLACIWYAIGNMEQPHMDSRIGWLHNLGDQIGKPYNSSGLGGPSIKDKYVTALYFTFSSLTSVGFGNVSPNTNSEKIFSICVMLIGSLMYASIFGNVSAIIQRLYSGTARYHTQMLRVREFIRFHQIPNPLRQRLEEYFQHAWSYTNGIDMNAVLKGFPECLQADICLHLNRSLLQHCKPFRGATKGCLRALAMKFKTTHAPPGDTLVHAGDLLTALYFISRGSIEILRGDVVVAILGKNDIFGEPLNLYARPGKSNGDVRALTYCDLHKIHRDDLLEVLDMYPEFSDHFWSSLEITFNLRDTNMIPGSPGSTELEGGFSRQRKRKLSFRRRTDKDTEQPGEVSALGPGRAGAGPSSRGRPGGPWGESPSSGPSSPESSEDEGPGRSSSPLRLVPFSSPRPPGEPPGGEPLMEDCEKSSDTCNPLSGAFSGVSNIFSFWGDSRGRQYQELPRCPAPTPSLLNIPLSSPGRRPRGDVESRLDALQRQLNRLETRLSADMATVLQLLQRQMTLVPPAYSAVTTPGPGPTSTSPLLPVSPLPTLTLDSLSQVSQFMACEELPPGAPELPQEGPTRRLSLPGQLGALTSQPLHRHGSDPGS
Source text: The external solution is standard Tyrodes solution.

[3] = test system: L-type calcium channels; assay: FLIPR L-type Calcium Channel Assay (calcium influx in HL-1 cells after KCl); settings: read-out: L-type Ca2+ IC50
How it was run: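 HL-1 cardiomyocytes loaded with FLIPR calcium dye for 60 min at 37° C in Tyrode's pH 7.35 with 2.5 mM probenecid, then preincubated 15 min with compounds. Channels were opened by 20 mM KCl final, and fluorescence was recorded for 5 min. Influx expressed as % control gave concentration-response IC50.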

T1 sequence (P22460 whole entry): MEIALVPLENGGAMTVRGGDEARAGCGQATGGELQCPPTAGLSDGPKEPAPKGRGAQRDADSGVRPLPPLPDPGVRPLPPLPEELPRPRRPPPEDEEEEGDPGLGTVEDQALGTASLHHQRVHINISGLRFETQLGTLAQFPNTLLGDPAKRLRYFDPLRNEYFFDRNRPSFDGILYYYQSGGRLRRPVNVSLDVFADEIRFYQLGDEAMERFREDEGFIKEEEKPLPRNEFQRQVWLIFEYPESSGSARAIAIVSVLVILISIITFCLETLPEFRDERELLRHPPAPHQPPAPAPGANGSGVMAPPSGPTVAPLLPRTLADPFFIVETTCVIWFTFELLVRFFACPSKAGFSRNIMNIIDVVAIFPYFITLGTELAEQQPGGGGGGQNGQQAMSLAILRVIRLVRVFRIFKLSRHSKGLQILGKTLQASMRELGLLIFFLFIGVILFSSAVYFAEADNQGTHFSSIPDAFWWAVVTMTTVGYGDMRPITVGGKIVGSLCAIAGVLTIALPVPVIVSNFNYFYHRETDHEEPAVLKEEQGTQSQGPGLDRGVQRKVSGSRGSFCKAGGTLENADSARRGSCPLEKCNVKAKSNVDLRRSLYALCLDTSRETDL

SMILES: COc1ccc(CCN2C(=O)C3(CCN(C(N)=O)CC3)N(C)[C@H]2c2ccc(C3CC3)cc2)cc1 [Compound 99, (R)-2-(4-cyclopropylphenyl)-3-[2-(4-methoxyphenyl)ethyl]-1-methyl-4-oxo-1,3,8-triaza-spiro[4.5]decane-8-carboxylic acid amide]
- IC50 ([1]; concentration response): 0.397 µM
- inhibition at 1 µM ([1]; single point at 1.0 μM, Kv1.5 stably over expressed in HEK or LTK- cells): 80%
- IC50 ([2]; concentration response): 16 µM
- inhibition at 10 µM ([2]; human, HEK cells stably overexpressing HERG, single point at 10 μM, HERG in HEK cells, read-out: HERG % Inhib. @ 10 μM): 24%
- IC50 [3]: 24 µM
